Measurements reported in article PMC11016601, “Exploring the bioaccessibility and intestinal absorption of major classes of pure phenolic compounds using in vitro simulated gastrointestinal digestion” (Heliyon, 2024).
≈ marks a conversion by molar mass, not a printed value. Where “and” joins values, the source holds several entries; their conditions need not be identical. Equal values may be shown once. Read-outs that look alike come from different tables or passages of the source. Marks after values point to notes of the source that are not given here.

Tests used:
[1] = In vitro simulated gastrointestinal digestion (SGD, INFOGEST 2.0): concentration and bioaccessibility by UHPLC-DAD-MSn; settings: for Bioaccessibility (%), initial solution (IS): reference
Description: Preliminary solubility tests in different solvents, namely water, sodium phosphate buffer (26.8 mM, pH 6.1), ethanol, and also a mixture of ethanol with both water and sodium phosphate buffer, were carried out for each PC (data not shown), to prevent erroneous data arising from compounds precipitation. Ethanol percentages used in these preliminary solubility tests were 10, 15, and 20% (v/v).
Each PC solubilized in ethanol:water (15% v/v) was then submitted to an in vitro SGD (INFOGEST 2.0), according to a standardized protocol (Fig. 2). In order to determine whether the interaction between the compounds and enzymes led to an underestimation of their content, each PC solution was submitted to the same digestion procedure, replacing the enzyme solutions with water, which were designed as controls, henceforth this will be the term used. Each sample and control were submitted to three independent in vitro digestion simulations, and after each digestion phase, a sample/control was collected and further analyzed and quantified by UHPLC-DAD-MSn.
(§1) Mouth digestion of each PC solution (1 mL) was diluted in 0.8 mL of simulated salivary fluid (SSF) and α-amylase (75 U mL-1). Then, the mixture was incubated for 2 min at 37 °C under agitation (200 rpm). In order to start gastric digestion, pH was adjusted to 3.0 using 1 M aqueous HCl and then, a pepsin solution (2000 U mL-1) and simulated gastric fluid (SGF) were added. Subsequently, the mixture was incubated for 2h, at 37 °C and 130 rpm orbital agitation for the stomach digestion. Finally, the small intestine digestion simulation was performed after pH adjustment to 7.0 using 1 M aqueous […] and the addition of pancreatin (100 U mL-1), bile salts solution (10 mM) and simulated intestinal fluid (SIF), during 2 h, at 37 °C with 45 rpm orbital agitation. Natural small intestine absorption was also simulated, by placing the remaining sample in a dialysis membrane, and immersed in distilled water overnight at room temperature.
At each sampling point, an aliquot (0.5 mL) from each of the three replicates was collected. The enzymatic activity was stopped immediately by adding pure methanol to each aliquot (1:1, v/v) to promote enzyme precipitation and subsequently centrifuged at 10 000 g and 4 °C for 5 min. The supernatants were filtered with a 0.2 μm nylon filter. To determine the concentration of each sample or control, it was considered the following dilution factor – 1:2, 1:4 and 1:8 for oral, gastric and intestinal digestion phase, respectively.
The bioaccessibility percentage (B%) of each PC was calculated using equation (1):(1) B(%)=[DS]/[IS]×100 where IS is the initial concentration of PCs in ethanol:water (15% v/v) solutions, DS is the concentration of each collected sample or control (without enzymes).
(§2) The values of B% and IA% were the average of the three replicates performed, with the calculated standard deviation.
PCs were analyzed in a UHPLC system equipped with a variable loop Accela autosampler (set at 16 °C), an Accela 600 LC pump, and an Accela 80 Hz photo diode array detector (DAD) (Thermo Fisher Scientific, San Jose, CA, USA). Each sample was prepared in methanol:water (1:1, v/v) and filtered through a 0.2 μm nylon syringe filter. […] The mobile phase was composed of acetonitrile (A) and water:acetonitrile (99:1, v/v) (B), both with 0.1 % of formic acid. The gradient elution was performed as follows: 0–1min: 99% B; 1–17 min: 99-73% B, 17–20 min: 73-0% B, 20–25 min: 0–99% B, followed by re-equilibration of the column at 99% B for 4 min.

[2] = design: method as in earlier work; settings: cited from earlier work
[3] = Simulation of intestinal absorption using a dialysis membrane (3 kDa) after in vitro SGD
Excerpt: HPLC-grade methanol, water, and acetonitrile were supplied by Fisher Scientific Chemicals. The enzymes α-amylase (A1031), pepsin from porcine stomach mucosa (P7012), pancreatin from porcine pancreas (P7545), and bile salts (B863) were purchased from Sigma-Aldrich (Taufkirchen, Germany). The rabbit gastric extract (RGE15) with gastric lipase activity was purchased from Lipolytech (Marseille, France). The ethanol was purchased from Merck (Algés, Portugal). A dialysis membrane with a molecular pore size of 3 kDa was purchased from Spectra/Pro (Spectrum Lab, Breda, Netherlands).
as §1
Furthermore, to determine the intestinal absorption, the aliquots collected inside the dialysis membrane were analyzed. The concentration of these samples (from inside of the membrane) corresponds to the amount of each PC that has not passed through to the outside of the membrane.
as §2

[4] = tested on: Caco-2 cell monolayers; settings: Caco-2 monolayers; cited from earlier work
[5] = design: method as in PMID 19375897; settings: cited from earlier work
[6] = design: method as in doi:10.1016/J.JFF.2016.08.003; settings: cited from earlier work
[7] = controls (without enzymes), gastric phase
[8] = controls (without enzymes), initial solution
[9] = controls (without enzymes), intestinal phase
[10] = controls (without enzymes), oral phase
[11] = samples with enzymes, after gastric digestion pH 3.0
[12] = samples with enzymes, after intestinal digestion pH 7.0
[13] = samples with enzymes, after oral digestion
[14] = samples with enzymes, gastric phase
[15] = samples with enzymes, intestinal phase
[16] = samples with enzymes, oral phase
[17] = samples, initial ethanol:water (15% v/v) solution

Row | SMILES | Bioaccessibility (%), oral phase (O) ([1]; 2 min) | Bioaccessibility (%), gastric phase (G) [1, 7] | Concentration, gastric phase (G) [1, 7] [µg/mL] | Concentration, initial solution (IS) [1, 8] [µg/mL] | Bioaccessibility (%), initial solution (IS) [1, 8] | Bioaccessibility (%), intestinal phase (I) [1, 9] | Concentration, intestinal phase (I) [1, 9] [µg/mL] | Bioaccessibility (%), oral phase (O) [1, 10] | Concentration, oral phase (O) [1, 10] | Concentration, gastric phase (G) [1, 11] [µg/mL] | Concentration, intestinal phase (I) [1, 12] [µg/mL] | Concentration, oral phase (O) [1, 13] [µg/mL] | Bioaccessibility (%), gastric phase (G) [1, 14] | Bioaccessibility (%), intestinal phase (I) [1, 15] | Bioaccessibility (%), oral phase (O) [1, 16] | Concentration, initial solution (IS) [1, 17] [µg/mL] | Bioaccessibility (%), initial solution (IS) ([1]; samples, initial solution) | Concentration, dialysis phase (D) [3] | permeability class from Papp, apical-to-basolateral direction [4] | other results
1 | O=c1cc(-c2ccc(O)cc2)oc2cc(O)cc(O)c12 [APG, apigenin] | 127.10 ± 1.17 ^a,b % | 15.20% and 15.20 ± 3.04 ^d % | 1.42 ± 0.28 | 9.33 | 100 ^c % | 158.32 ± 5.05 ^a % | 14.78 ± 0.47 | 134.98 ± 8.17 ^b % | 12.60 ± 0.76 µg/mL | 2.58 ± 0.47 | 13.74 ± 1.22 | 11.86 ± 0.11 | 27.60% and 27.60 ± 5.02^ c % | 147.20% and 147.20 ± 13.05 ^a % | 127.10% | 9.33 | 100 ^b % | – | – | bioaccessible fraction after intestinal digestion relative to the gastric phase [2]: 2 fold
2 | O=C(CCc1ccc(O)cc1)c1c(O)cc(O)cc1O [PH, phloretin] | 96.46 ± 10.69^ a % | 91.73% and 91.73 ± 13.24 ^a,b % | 264.55 ± 38.18 | 288.39 | 100 ^a,b % | 58.91% and 58.91 ± 16.19 ^b % | 169.91 ± 46.69 | 111.74% and 111.74 ± 7.23^ a % | 322.24 ± 20.85 µg/mL | 210.15 ± 21.97 | 148.67 ± 32.07 | 278.19 ± 30.82 | 72.87 ± 7.62 ^a,b % | 51.55% and 51.55± 11.12 ^b % | 96.46% | 288.39 | 100^ a % | 17.18 ± 2.01 µg/mL | low-permeable | Concentration, dialysis phase (D) ([3]; pig): 26.35 ± 10.09 µg/mL
3 | O=c1c(O)c(-c2ccc(O)c(O)c2)oc2cc(O)cc(O)c12 [QUE, quercetin] | 57.23 ± 6.98^ b % | – | – | 39.89 | 100% | 17.59 ± 1.70% | 7.02 ± 0.7 | – | 13.64** μg mL^-1 | 2.74 ± 0.63 | 7.33 ± 0.10 | 22.83 ± 2.78 | 6.87% and 6.87 ± 1.57^ c % | 18.36% and 18.36 ± 0.26^ c % | 57.23% | 39.89 | 100^ a % | below the detection limit | low-permeable | Intestinal absorption (IA%) [3]: very high; solubility ([5]; pH 1.5): 5.5 µg/mL (≈ 18.2 µM); solubility ([5]; pH 7.5): 28.9 µg/mL (≈ 95.6 µM)
4 | C[C@@H]1O[C@@H](OC[C@H]2O[C@@H](Oc3c(-c4ccc(O)c(O)c4)oc4cc(O)cc(O)c4c3=O)[C@H](O)[C@@H](O)[C@@H]2O)[C@H](O)[C@H](O)[C@H]1O [RUT, rutin] | – | 97.20 ± 2.29 ^a,b % | 317.06 ± 7.46 | 326.19 | 100 ^a,b % | 87.44 ± 5.94 ^b % | 285.21 ± 19.38 | 101.57 ± 2.61^ a % | 331.30 ± 8.52 µg/mL | 320.45 ± 11.33 | 265.68 ± 13.37 | 281.60 ± 67.69 | 98.24% and 98.24 ± 3.47^ a % | 81.45% and 81.45 ± 4.10^ a % | 86.33% and 86.33 ± 20.75^ a % | 326.19 | 100^ a % | – | low-permeable | percentage collected from inside of dialysis membrane ([6]; after in vitro gastrointestinal digestion): 1.65%; IA% ([6]; dialysis membrane): about 98%; Concentration, dialysis phase (D) ([3]; controls (without enzymes), aliquot from inside the dialysis membrane): 15.12 ± 5.54 µg/mL; Intestinal absorption (IA%) ([3]; controls (without enzymes), dialysis membrane): 94.75% and 94.75 ± 1.72%; Concentration, dialysis phase (D) ([3]; samples with enzymes, aliquot from inside the dialysis membrane): 22.24 ± 1.52 µg/mL; Intestinal absorption (IA%) ([3]; samples with enzymes, dialysis membrane): 91.63% and 91.63 ± 0.28%; formation of metabolites during in vitro SGD (UHPLC-DAD-MSn) ([1]; samples with enzymes): produced a metabolite after intestinal digestion simulation
